Data on 1 molecule can be found in article PMC12935919 (Frontiers in Pharmacology, 2026).

The structures appear in SMILES notation.

In the assay the test system is C2C12 myotubes. Put plainly: DEX-induced muscle atrophy model, Western blot. The format is cell-based. To be noted: 10 μM DEX 24 h, alone or with 10 or 100 μM Myoki. Here is the method:
To induce C2C12 myotube differentiation, myoblasts were seeded in 6-well plates at 5 × 10^5 cells per well. Once reaching 90% confluency, they were cultured in DMEM supplemented with 2% horse serum (Thermo Fisher Scientific) and 1% penicillin-streptomycin. […] Differentiation was observed using an optical microscope (LEICA, 100×). Myotube morphology (length and diameter) was quantified in ImageJ (NIH) using the same images: myotube length was measured by tracing the long axis of each myotube (end-to-end), and myotube diameter was measured as the short-axis width at three positions along each myotube; the mean of the three width values was recorded as the diameter. For each experimental group, three randomly captured images (fields) were analyzed, and at least 15–20 myotubes per image were quantified under identical imaging settings.
Treated C2C12 cells (5 × 10^5 cells/well) were harvested in lysis buffer (Sigma-Aldrich, 2910) and centrifuged at 12,000 g for 10 min; proteins in the supernatant were collected. Protein concentrations were measured using the BCA Protein Assay Kit (Thermo Fisher Scientific). Each 20 μg sample was separated using 10% SDS–PAGE and transferred onto a polyvinylidene fluoride membrane (Millipore, Burlington, MA, USA). Non-specific binding was blocked with 5% non-fat dry milk for 1 h. The membranes were incubated overnight with primary antibodies: Anti-Myf5 (Abcam, ab125078), Anti-Myf6 (Abcam, ab182842), Anti-MyoD (Santa Cruz, sc-377460), Anti-MyoG (Santa Cruz, sc-52903), Anti-α-actinin (Santa Cruz, sc-17829), Anti-MYH3 (Santa Cruz, sc-53091), Anti-p-mTOR (Ser2448) (CST, #5536), Anti-p-Akt (Ser473) (CST, #9271), Anti-p-p70 S6 Kinase (Thr389) (CST, #9205), Anti-myostatin (Abcam, ab124721), Anti-atrogin-1/MAFbx (Santa Cruz, sc-166806), and Anti-MuRF1 (Santa Cruz, sc-398608). Membranes were then incubated for 1 h with HRP-conjugated secondary antibodies. Blot images were captured with the ECL system (Amersham, UK) and quantified using ImageJ.
A general note: In western blotting, separated proteins are transferred to a membrane and probed.

On to `C[C@@H]1C[C@H]2[C@@H]3CCC4=CC(=O)C=C[C@]4(C)[C@@]3(F)[C@@H](O)C[C@]2(C)[C@@]1(O)C(=O)CO` [DEX, dexamethasone, reference compound], for which the MuRF1 expression entry is given as “significant increase”; the atrogin-1/MAFbx expression entry is “significant increase”; the “expression levels of differentiated muscle fiber structural proteins” value was “significantly reduced”; the “phosphorylation levels of muscle growth signaling proteins (Akt, mTOR, p70S6K)” value is “significantly reduced”.
